Results as given in patent publication US9351983B2, “Use of glycerophosphoinositols for the treatment of septic shock” (CONSIGLIO NAZIONALE DELLE RICERCHE, priority 2012, dated 2016).

Test system: LPS-activated tissue-factor (TF) activity in human monocytes
Experiment: Pro-coagulant activity of tissue factor (one-stage clotting time) in LPS-stimulated human monocytes
Format: cell-based
Experimental: FIG. 2—The glycerophosphoinositols inhibit LPS-activated tissue-factor activity in human monocytes. Human monocytes were purified from peripheral blood of healthy donors and incubated at 37° C. for 20 min without or with different concentrations (from 50 μM to 300 μM) GroPIns or GroPIns4P, and for a further 5 h and 24 h in the absence and in presence of 0.1 μg/ml LPS from E. coli. […] Data are means (±SD) of three independent experiments performed with cells from different donors. Asterisks indicate statistically significant differences (*p=0.015; **p<0.005; ***p=0.0003) versus their respective controls. As shown, pro-coagulant activity was not detectable in untreated monocytes, and it was induced in a time-dependent manner by LPS stimulation.
The glycerophosphoinositol, differently from the PLA2IVα inhibitor, inhibits LPS-activated tissue-factor activity in human monocytes. Human monocytes were purified from peripheral blood of two healthy donors (experiment I and II) and pre-incubated at 37° C. for 20 min without (black line) or with 300 μM glycerophosphoinositol (GroPIns, blue line) or 0.5 μM PLA2IVα inhibitor (pyrrophenone, Pf, red line), and for a further 24 h in the absence or presence of increasing concentrations of LPS from E. coli (endotoxin).
The glycerophosphoinositol inhibits in a dose-dependent manner LPS-activated tissue-factor activity in human monocytes. Human monocytes were purified from peripheral blood of three healthy donors (experiments III, IV and V) and pre-incubated at 37° C. for 20 min without or with increasing concentrations of glycerophosphoinositol (GroPIns) and for a further 24 h in the absence or presence of 10 ng/ml of LPS from E. coli (endotoxin). […] The two insets in Exp IV and V show the pro-coagulant activity of tissue factor, assessed in cells stimulated by 10 ng/ml of endotoxin, with (filled bars) or without (dotted bars) 20 min pre-incubation at 37° C., in absence (Control) or in presence of 300 μM GroPIns.
The glycerophosphoinositols inhibit LPS-activated tissue-factor activity in human monocytes.
Human monocytes were obtained from whole blood collected from healthy donors (informed consent was obtained) and anticoagulated with 0.1 vol 3.8% sodium citrate/0.15 mol/l NaCl. The leukocytes were sedimented at 180×g for 15 min at 10° C. The sedimented cells were diluted to the initial volume with citrate-saline and sedimented again. This step was repeated to minimise platelet contamination. The cells were then layered onto Lymphoprep™, and centrifuged at 700×g for 20 min at 20° C. The ring of mononuclear cells was collected and sedimented at 620×g for 7 min at 8° C. The pellet was resuspended in citrate-saline and the cells were washed twice. Monocytes were purified using a discontinuous Percoll™ density gradient; the mononuclear cell preparation was resuspended in RPMI-1640 medium supplemented with 10% heat-inactivated foetal calf serum, and was layered onto a 46% isosmotic Percoll™ solution. After centrifugation at 20° C. for 30 min at 550×g, the cells at the RPMI-1640 medium/Percoll™ interface were collected and sedimented at 620×g. The pellet was resuspended in citrate-saline and the cells were washed twice. The final monocyte preparation was then resuspended in serum-free RPMI-1640 at the concentration required.
The pro-coagulant activity of tissue factor (TF activity) was measured in cell lysates according to one-stage clotting time [as reported in (Evangelista et al., Thromb Haemost. 2005; 94, 568-577)]. One hundred μl of cell lysates were added to 100 μl of 37° C. prewarmed normal human plasma. After 30 s, 100 μl 20 mM CaCl2 were added to the mixture and the clotting time was determined using a KC4A Amellung Coagulometer (Mascia Brunelli, Milan, Italy). The data were then converted in arbitrary units by interpolation with a standard curve generated with serial dilutions of human recombinant thromboplastin (Hemoliance, Instrumentation Laboratory).

[1] = 300 μM, endotoxin 10 ng/ml for 24 h (FIG. 12)

Row | Structure (SMILES) | TF activity [1] | efficacy in reducing TF activity compared with GroPIns [1] | TF activity (0.5 μM, 20 min pre-incubation, increasing concentrations of endotoxin for 24 h (FIG. 10))
1 | O=P(O)(O)O[C@@H]1[C@@H](O)[C@@H](O)[C@@H](OP(=O)(O)OCC(O)CO)[C@H](O)[C@H]1OP(=O)(O)O (stereo partly drawn) [GroPIns4,5P2, glycerophosphoinositol 4,5-bisphosphate] | reduce TF activity | higher efficacy than GroPIns | –
2 | O=C1NC(=O)/C(=C/c2ccc(C(=O)NC[C@@H]3C[C@@H](SC(c4ccccc4)(c4ccccc4)c4ccccc4)CN3C(=O)c3ccccc3C(=O)c3ccc(F)cc3F)cc2)S1 [pyrrophenone, reference compound] | – | – | does not significantly inhibit endotoxin effect on tissue-factor activity
